Measurements reported in patent publication US9714244B2, “Substituted pyrido[4,3-d]pyrimidines as Wee-1 inhibitors” (ALMAC DISCOVERY LIMITED, priority 2013, dated 2017).

Assays:
PRKCB1 (PKC beta I) = PRKCB1 (PKC beta I) (Homo sapiens (Human), UniProt P05771); experiment: SelectScreen Kinase Profiling: PRKCB1; assay type: biochemical; settings: 300-350 nM
Description: (§1) Table 2 below highlights the selectivity of a representative compound of the invention against a panel of 50 kinases (assessed using the Invitrogen SelectScreen® Kinase Profiling Service).

SYK = SYK (Homo sapiens (Human), UniProt P43405); experiment: SelectScreen Kinase Profiling: SYK; assay type: biochemical; settings: 300-350 nM
Description: as §1

PHKG2 = PHKG2 (Homo sapiens (Human), UniProt P15735); experiment: SelectScreen Kinase Profiling: PHKG2; assay type: biochemical; settings: 300-350 nM
Description: as §1

MET (cMet) = MET (cMet) (Homo sapiens (Human), UniProt P08581); experiment: SelectScreen Kinase Profiling: MET; assay type: biochemical; settings: 300-350 nM
Description: as §1

MAPK8 (JNK1) = MAPK8 (JNK1) (Homo sapiens (Human), UniProt P45983); experiment: SelectScreen Kinase Profiling: MAPK8; assay type: biochemical; settings: 300-350 nM
Description: as §1

KIT = KIT (Homo sapiens (Human), UniProt P10721); experiment: SelectScreen Kinase Profiling: KIT; assay type: biochemical; settings: 300-350 nM
Description: as §1

IRAK4 = IRAK4 (Homo sapiens (Human), UniProt Q9NWZ3); experiment: SelectScreen Kinase Profiling: IRAK4; assay type: biochemical; settings: 300-350 nM
Description: as §1

INSR = INSR (Homo sapiens (Human), UniProt P06213); experiment: SelectScreen Kinase Profiling: INSR; assay type: biochemical; settings: 300-350 nM
Description: as §1

[1] = tested on: phospho-cdc2 (Tyr15) in HT-29 cells; experiment: Effect on phosphorylation of cdc2 at Tyr15 in HT-29 cells (PathScan ELISA); assay type: cell-based; settings: Homo sapiens, HT-29, 8 h; HT29 cells, eight hours incubation; read-out: HT29 pCDC2 activity
MARK2 = MARK2 (Homo sapiens (Human), UniProt Q7KZI7); experiment: SelectScreen Kinase Profiling: MARK2; assay type: biochemical; settings: 300-350 nM
Description: as §1

BTK = BTK (Homo sapiens (Human), UniProt Q06187); experiment: SelectScreen Kinase Profiling: BTK; assay type: biochemical; settings: 300-350 nM
Description: as §1

GSK3B (GSK3 beta) = GSK3B (GSK3 beta) (Homo sapiens (Human), UniProt P49841); experiment: SelectScreen Kinase Profiling: GSK3B; assay type: biochemical; settings: 300-350 nM
Description: as §1

FGFR1 = FGFR1 (Homo sapiens (Human), UniProt P11362); experiment: SelectScreen Kinase Profiling: FGFR1; assay type: biochemical; settings: 300-350 nM
Description: as §1

Src = Src (Homo sapiens (Human), UniProt P12931); experiment: SelectScreen Kinase Profiling: SRC; assay type: biochemical; settings: 300-350 nM
AURKA (Aurora A) = AURKA (Aurora A) (Homo sapiens (Human), UniProt O14965); experiment: SelectScreen Kinase Profiling: AURKA; assay type: biochemical; settings: 300-350 nM
Description: as §1

IKBKB (IKK beta) = IKBKB (IKK beta) (Homo sapiens (Human), UniProt O14920); experiment: SelectScreen Kinase Profiling: IKBKB; assay type: biochemical; settings: 300-350 nM
Description: as §1

MAP4K4 (HGK) = MAP4K4 (HGK) (Homo sapiens (Human), UniProt O95819); experiment: SelectScreen Kinase Profiling: MAP4K4; assay type: biochemical; settings: 300-350 nM
Description: as §1

RET = RET (Homo sapiens (Human), UniProt P07949); experiment: SelectScreen Kinase Profiling: RET; assay type: biochemical; settings: 300-350 nM
Description: as §1

NEK1 = NEK1 (Homo sapiens (Human), UniProt Q96PY6); experiment: SelectScreen Kinase Profiling: NEK1; assay type: biochemical; settings: 300-350 nM
Description: as §1

ROCK1 = ROCK1 (Homo sapiens (Human), UniProt Q13464); experiment: SelectScreen Kinase Profiling: ROCK1; assay type: biochemical; settings: 300-350 nM
Description: as §1

EGFR (ErbB1) = EGFR (ErbB1) (Homo sapiens (Human), UniProt P00533); experiment: SelectScreen Kinase Profiling: EGFR; assay type: biochemical; settings: 300-350 nM
LCK = LCK (Homo sapiens (Human), UniProt P06239); experiment: SelectScreen Kinase Profiling: LCK; assay type: biochemical; settings: 300-350 nM
Description: as §1

ACVR1B (ALK4) = ACVR1B (ALK4) (Homo sapiens (Human), UniProt P36896); experiment: SelectScreen Kinase Profiling: ACVR1B; assay type: biochemical; settings: 300-350 nM
Description: as §1

MAPK1 (ERK2) = MAPK1 (ERK2) (Homo sapiens (Human), UniProt P28482); experiment: SelectScreen Kinase Profiling: MAPK1; assay type: biochemical; settings: 300-350 nM
Description: as §1

Chain of IRAK4 (Q9NWZ3 whole entry): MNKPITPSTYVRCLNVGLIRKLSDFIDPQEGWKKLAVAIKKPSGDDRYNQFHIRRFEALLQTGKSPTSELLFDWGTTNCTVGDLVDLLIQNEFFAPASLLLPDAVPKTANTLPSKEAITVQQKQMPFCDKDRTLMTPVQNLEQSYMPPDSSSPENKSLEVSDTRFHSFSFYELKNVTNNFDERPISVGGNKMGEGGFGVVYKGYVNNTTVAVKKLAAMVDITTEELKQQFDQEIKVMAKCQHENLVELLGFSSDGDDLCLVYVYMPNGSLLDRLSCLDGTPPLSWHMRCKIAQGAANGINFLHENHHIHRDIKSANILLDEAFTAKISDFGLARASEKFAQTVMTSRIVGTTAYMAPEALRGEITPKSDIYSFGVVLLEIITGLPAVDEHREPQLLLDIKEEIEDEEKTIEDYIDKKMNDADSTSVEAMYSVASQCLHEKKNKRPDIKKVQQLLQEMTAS
Chain of GSK3B (GSK3 beta) (P49841 whole entry): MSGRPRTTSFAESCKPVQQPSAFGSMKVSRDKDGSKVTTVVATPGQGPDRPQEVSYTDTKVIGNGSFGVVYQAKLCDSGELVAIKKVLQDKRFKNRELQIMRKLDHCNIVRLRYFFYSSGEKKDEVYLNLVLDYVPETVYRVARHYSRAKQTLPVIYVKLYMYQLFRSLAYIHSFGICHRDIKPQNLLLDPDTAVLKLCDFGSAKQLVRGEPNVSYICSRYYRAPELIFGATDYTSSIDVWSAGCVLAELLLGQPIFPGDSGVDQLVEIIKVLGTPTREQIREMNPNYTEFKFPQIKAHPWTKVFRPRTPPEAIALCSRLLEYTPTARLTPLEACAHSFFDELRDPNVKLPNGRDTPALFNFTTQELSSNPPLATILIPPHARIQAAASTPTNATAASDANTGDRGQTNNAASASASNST
Chain of KIT (P10721 26-976): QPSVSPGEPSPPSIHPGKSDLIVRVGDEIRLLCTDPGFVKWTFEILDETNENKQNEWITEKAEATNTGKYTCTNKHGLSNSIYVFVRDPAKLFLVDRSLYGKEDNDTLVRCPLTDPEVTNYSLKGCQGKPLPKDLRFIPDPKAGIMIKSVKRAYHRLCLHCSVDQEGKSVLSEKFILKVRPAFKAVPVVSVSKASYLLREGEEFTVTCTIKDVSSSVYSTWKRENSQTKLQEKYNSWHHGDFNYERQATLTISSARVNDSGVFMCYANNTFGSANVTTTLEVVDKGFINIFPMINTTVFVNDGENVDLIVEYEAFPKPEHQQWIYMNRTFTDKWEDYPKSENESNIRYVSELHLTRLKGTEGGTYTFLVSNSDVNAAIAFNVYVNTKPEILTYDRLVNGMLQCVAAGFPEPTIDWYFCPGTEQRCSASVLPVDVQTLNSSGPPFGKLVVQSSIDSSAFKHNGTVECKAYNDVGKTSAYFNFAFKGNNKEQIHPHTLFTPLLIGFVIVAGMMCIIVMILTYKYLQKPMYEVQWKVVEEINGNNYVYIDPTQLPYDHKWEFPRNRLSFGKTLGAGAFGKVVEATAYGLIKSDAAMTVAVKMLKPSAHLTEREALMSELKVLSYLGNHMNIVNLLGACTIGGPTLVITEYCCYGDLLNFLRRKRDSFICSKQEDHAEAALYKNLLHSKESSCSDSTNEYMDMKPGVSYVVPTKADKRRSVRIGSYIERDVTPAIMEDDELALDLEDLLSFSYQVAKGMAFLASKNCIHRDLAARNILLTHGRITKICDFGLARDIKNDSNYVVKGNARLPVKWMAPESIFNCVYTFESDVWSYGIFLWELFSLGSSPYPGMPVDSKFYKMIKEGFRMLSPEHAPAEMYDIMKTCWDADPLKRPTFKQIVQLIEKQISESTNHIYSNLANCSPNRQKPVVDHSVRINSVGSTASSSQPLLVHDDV
Chain of PHKG2 (P15735 whole entry): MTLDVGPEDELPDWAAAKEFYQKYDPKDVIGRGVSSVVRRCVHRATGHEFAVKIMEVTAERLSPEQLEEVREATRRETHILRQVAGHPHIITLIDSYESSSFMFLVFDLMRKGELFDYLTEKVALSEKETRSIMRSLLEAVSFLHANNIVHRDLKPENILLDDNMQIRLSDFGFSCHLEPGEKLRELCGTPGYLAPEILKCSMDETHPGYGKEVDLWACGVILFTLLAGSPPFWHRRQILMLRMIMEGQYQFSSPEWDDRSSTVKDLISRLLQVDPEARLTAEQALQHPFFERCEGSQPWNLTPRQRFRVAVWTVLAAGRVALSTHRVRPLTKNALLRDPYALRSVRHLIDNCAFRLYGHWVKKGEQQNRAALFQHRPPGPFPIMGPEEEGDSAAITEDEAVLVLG
Chain of FGFR1 (P11362 22-822): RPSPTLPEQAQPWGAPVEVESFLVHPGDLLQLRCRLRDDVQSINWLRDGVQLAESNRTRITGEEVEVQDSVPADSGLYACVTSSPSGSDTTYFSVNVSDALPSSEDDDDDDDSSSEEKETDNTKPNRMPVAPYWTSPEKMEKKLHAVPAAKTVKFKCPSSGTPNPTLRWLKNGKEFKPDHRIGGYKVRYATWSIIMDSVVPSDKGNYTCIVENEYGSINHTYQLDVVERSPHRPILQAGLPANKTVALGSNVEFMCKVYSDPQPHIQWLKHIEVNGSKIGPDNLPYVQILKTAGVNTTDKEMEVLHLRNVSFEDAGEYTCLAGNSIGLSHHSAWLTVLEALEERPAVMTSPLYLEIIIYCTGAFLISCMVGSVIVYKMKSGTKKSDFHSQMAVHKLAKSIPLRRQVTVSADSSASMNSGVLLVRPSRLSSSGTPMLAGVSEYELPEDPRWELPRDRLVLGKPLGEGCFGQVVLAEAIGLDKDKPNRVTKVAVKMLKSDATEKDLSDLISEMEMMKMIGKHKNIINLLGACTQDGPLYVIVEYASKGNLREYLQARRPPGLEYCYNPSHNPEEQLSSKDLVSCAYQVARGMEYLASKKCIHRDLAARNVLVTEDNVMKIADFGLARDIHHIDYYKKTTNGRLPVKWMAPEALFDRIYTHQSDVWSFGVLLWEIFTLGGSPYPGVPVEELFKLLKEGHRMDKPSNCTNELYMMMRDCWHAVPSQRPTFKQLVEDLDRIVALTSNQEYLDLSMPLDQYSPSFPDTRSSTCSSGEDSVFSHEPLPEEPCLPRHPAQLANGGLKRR
Chain of ACVR1B (ALK4) (P36896 24-505): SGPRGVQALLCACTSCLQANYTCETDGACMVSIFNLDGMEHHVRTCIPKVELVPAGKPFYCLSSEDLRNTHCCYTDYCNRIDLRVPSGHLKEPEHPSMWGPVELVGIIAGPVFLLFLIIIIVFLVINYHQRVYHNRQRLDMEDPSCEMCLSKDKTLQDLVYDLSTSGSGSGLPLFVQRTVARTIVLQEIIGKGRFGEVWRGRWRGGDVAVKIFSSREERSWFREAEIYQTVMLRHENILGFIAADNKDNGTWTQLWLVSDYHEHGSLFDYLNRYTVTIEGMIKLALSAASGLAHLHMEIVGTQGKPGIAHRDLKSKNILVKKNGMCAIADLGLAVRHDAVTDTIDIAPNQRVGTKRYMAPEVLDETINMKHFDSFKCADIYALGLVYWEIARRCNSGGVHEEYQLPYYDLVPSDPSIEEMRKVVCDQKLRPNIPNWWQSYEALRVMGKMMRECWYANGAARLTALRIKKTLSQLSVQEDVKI
Chain of MAPK1 (ERK2) (P28482 whole entry): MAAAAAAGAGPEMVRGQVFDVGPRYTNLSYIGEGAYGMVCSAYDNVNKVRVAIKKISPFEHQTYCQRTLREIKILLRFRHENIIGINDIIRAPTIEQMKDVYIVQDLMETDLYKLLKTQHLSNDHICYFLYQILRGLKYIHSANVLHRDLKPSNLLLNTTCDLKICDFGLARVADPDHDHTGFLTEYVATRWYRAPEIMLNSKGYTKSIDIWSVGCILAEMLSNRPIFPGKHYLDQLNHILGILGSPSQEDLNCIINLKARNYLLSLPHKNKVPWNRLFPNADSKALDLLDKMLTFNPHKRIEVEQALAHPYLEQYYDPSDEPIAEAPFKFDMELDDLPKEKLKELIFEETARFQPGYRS
Chain of LCK (P06239 whole entry): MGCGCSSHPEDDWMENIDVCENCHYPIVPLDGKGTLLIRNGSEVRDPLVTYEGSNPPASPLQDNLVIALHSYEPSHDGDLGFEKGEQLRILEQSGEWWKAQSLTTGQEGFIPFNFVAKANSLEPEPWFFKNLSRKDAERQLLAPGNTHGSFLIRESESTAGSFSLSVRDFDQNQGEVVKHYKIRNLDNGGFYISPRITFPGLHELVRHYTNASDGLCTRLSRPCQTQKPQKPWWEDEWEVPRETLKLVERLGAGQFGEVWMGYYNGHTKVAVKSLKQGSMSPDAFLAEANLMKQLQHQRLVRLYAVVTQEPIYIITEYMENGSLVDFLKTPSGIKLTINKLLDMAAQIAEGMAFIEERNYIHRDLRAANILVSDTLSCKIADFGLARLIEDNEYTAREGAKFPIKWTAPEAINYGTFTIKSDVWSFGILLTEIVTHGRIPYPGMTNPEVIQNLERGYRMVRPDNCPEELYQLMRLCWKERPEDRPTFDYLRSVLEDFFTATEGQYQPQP
Chain of MAPK8 (JNK1) (P45983 whole entry): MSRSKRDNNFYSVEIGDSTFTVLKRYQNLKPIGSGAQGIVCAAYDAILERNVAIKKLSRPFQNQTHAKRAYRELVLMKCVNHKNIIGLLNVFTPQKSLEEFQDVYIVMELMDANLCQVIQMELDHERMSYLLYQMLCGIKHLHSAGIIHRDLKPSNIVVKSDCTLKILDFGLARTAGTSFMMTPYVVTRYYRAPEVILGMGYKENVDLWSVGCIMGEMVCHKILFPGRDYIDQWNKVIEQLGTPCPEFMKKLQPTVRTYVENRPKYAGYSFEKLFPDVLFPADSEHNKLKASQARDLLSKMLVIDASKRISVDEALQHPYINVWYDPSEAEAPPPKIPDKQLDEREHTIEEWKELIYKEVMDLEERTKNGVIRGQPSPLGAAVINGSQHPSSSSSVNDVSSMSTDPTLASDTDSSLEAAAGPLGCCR

What does the source list for `O=c1c2cnc(Nc3ccc(N4CCNCC4)cc3)nc2ccn1-c1c(Cl)cccc1Cl` [Example 1, 6-(2,6-Dichlorophenyl)-2-((4-(piperazin-1-yl)phenyl)amino)pyrido[4,3-d]pyrimidin-5(6H)-one]?
Inhibition PRKCB1 (PKC beta I) (PRKCB1 (PKC beta I)): − (Inhibition <75% @ 300-350 nM); Inhibition SYK (SYK): − (Inhibition <75% @ 300-350 nM); Inhibition PHKG2 (PHKG2): − (Inhibition <75% @ 300-350 nM); Inhibition MET (cMet) (MET (cMet)): − (Inhibition <75% @ 300-350 nM); Inhibition MAPK8 (JNK1) (MAPK8 (JNK1)): − (Inhibition <75% @ 300-350 nM); Inhibition KIT (KIT): − (Inhibition <75% @ 300-350 nM); Inhibition IRAK4 (IRAK4): − (Inhibition <75% @ 300-350 nM); Inhibition INSR (INSR): − (Inhibition <75% @ 300-350 nM); IC50 [1]: ≥ 1000 nM; Inhibition MARK2 (MARK2): − (Inhibition <75% @ 300-350 nM); Inhibition BTK (BTK): − (Inhibition <75% @ 300-350 nM); Inhibition GSK3B (GSK3 beta) (GSK3B (GSK3 beta)): − (Inhibition <75% @ 300-350 nM); Inhibition FGFR1 (FGFR1): − (Inhibition <75% @ 300-350 nM); Inhibition SRC (Src): − (Inhibition <75% @ 300-350 nM); Inhibition AURKA (Aurora A) (AURKA (Aurora A)): − (Inhibition <75% @ 300-350 nM); Inhibition IKBKB (IKK beta) (IKBKB (IKK beta)): − (Inhibition <75% @ 300-350 nM); Inhibition MAP4K4 (HGK) (MAP4K4 (HGK)): − (Inhibition <75% @ 300-350 nM); Inhibition RET (RET): − (Inhibition <75% @ 300-350 nM); Inhibition NEK1 (NEK1): − (Inhibition <75% @ 300-350 nM); Inhibition ROCK1 (ROCK1): − (Inhibition <75% @ 300-350 nM); Inhibition EGFR (ErbB1) (EGFR (ErbB1)): − (Inhibition <75% @ 300-350 nM); Inhibition LCK (LCK): − (Inhibition <75% @ 300-350 nM); Inhibition ACVR1B (ALK4) (ACVR1B (ALK4)): − (Inhibition <75% @ 300-350 nM); Inhibition MAPK1 (ERK2) (MAPK1 (ERK2)): − (Inhibition <75% @ 300-350 nM)
